From patent US5041542A, “Substituted pyrimido[5,4-d]pyrimidine nucleosides” (Nucleic Acid Research Institute, priority 1988, dated 1991)

What was measured:
L1210 leukemia = settings: mouse, in vivo; cited from earlier work
CEM-V cells = experiment: Growth inhibition of normal, uninfected cells (HIV test); format: cell-based; settings: Homo sapiens, 168 h
Description: (§1) Compound 8 was evaluated by the National Cancer Institute for in vitro activity against human immunodeficiency virus (HIV: cell line:CEM-V). In this test the compound was screened using human "host" cells with and without virus. The test is conducted for seven days (during which time infected, non-drug treated control cells are largely or totally destroyed by the virus), and then the number of remaining viable cells are determined. […] A therapeutic index (TI) can be calculated as the IC/EC ratio.

DNA and RNA viruses = settings: cited from earlier work
[1] = test system: human immunodeficiency virus; experiment: In vitro activity against HIV, viral cytopathic effect; format: cell-based
Description: as §1

[2] = Intracellular phosphorylation (SAX-HPLC); format: cell-based
in vivo = settings: mouse, ip
[3] = Anomerization in aqueous solution (reverse-phase HPLC); format: physicochemical; settings: buffered, 37° C., 9 h, no added protein
Description: This would be expected where the rate of anomerization is slow compared to the rate of deamination.
The compounds of the invention are capable of crossing the cell membrane, and activated to the 5'-phosphate, thus causing the inhibition of the de novo purine biosynthesis.
HPLC Analysis: Sample components were separated with an LKB model 2150 gradient HPLC system at ambient temperature on an Altex Ultrashere-ODS reverse phase column (Beckman) developed with a linear gradient of buffer A (10 mM KPO4 ', pH 3.83) to 20% component B (60% aqueous CH3 CN) at a combined flow rate of 1.0 mL/min over 15 min. Ultraviolet (UV) absorbance was monitored with an LKB model 2140 diode array detector. Inhibition of de novo purine biosynthesis: WI-L2 or adenosine kinase-deficient cells were preincubated at 37° C. with drug for various time periods prior to labeling with [^14 C]formate. Enzyme Assays: Adenosine kinase inhibition studies were accomplished by the filter binding assay method. Inhibition studies were done at 37° C. with an assay mixture containing 4 mM ATP, 1.5 mM MgCl2, 5 or 10 μM [8-^14 C] adenosine (50 mCi/mmol) and 100 mM Tris-maleate, pH 5.5. To prevent the enzymatic breakdown of adenosine, erythro-9-(2-hydroxy-3-nonyl)adenine (EHNA) was added to the cell-free WI-L2 lysate to give 5 μM final assay concentration. The assay was started by the addition of protein. The amount of enzyme, time of assay and sampling volume were adjusted to give acceptable conversion of [8-^14 C] adenosine to [8-^14 C]AMP. Each DE-81 filter was spotted with a constant sampling volume and immersed in H 2 O (4 L) to terminate the reaction. Filters were washed three times with H2 O (4 L) and once with EtOH (100 mL). Dry filters were placed in scintillation vials and radioactivity was counted with 10 mL toluene-based scintillation cocktail.

WI-L2 adenosine kinase = biological target: T1, WI-L2 adenosine kinase (Homo sapiens, UniProt P55263); experiment: Adenosine kinase inhibition (filter binding assay); format: biochemical; settings: decrease in rate of [14C]AMP formation from [14C]adenosine
T1 construct: added to the cell-free WI-L2 lysate to give 5 μM final assay concentration; endogenous in cells; host or cells: WI-L2 B lymphoblast cells (cell-free lysate)
T1 sequence (P55263 whole entry): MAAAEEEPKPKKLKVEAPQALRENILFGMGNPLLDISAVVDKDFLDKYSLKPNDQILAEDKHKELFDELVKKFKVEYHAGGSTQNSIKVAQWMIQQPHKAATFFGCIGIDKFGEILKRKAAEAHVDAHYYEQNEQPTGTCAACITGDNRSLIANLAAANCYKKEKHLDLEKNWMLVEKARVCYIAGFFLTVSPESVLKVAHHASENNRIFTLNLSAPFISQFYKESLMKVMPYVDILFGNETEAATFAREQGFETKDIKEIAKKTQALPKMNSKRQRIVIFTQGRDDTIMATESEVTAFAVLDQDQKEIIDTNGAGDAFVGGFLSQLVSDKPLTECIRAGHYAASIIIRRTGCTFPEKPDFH

[4] = test system: Herpes 2, parainfluenza 3 and Vaccinia; format: cell-based; settings: tested in parallel with ARPP (8)

SMILES | growth of L1210 leukemia in mice (cited) (L1210 leukemia) | IC50 (CEM-V cells; read-out: IC50 (50% growth inhibition), seven days) [µM] | IC90 (CEM-V cells; seven days) [µM] | antiviral activity in cell culture (cited) (DNA and RNA viruses) | EC50 ([1]; Human immunodeficiency virus 1, 168 h, read-out: EC50 (50% reduction of viral cytopathic effect)) [µM] | EC90 ([1]; Human immunodeficiency virus 1, 168 h, HIV, CEM-V cells, seven days, read-out: EC90 (90% reduction of viral cytopathic effect)) [µM] | therapeutic index at 50% (IC/EC ratio) ([1]; IC50/EC50, HIV, CEM-V, 10080 min) | therapeutic index at 90% (IC/EC ratio) ([1]; IC90/EC90, HIV, CEM-V, 10080 min) | intracellular phosphate formation [2] | MTD (in vivo) [mg/kg] | 21 (anomeric mixture) formed from compound 14 [3] [%] | α-anomer 17 formed from compound 14 [3] [%] | direct inhibition of adenosine kinase (WI-L2 adenosine kinase) | Antiviral activity in cell culture [4]
Nc1ncnc2c(N[C@@H]3O[C@H](CO)[C@@H](O)[C@H]3O)ncnc12 [Compound 8, 4-Amino-8-(β-D-ribofuranosylamino)pyrimido[5,4-d]pyrimidine, reference compound] | inhibits the growth of L1210 leukemia in mice | 1.95 | 6.6 | antiviral activity for DNA and RNA viruses in cell culture by inhibiting viral protein synthesis | 0.0951 | 0.768 | 2.05×10^1 | 8.60×10^0 | formation of intracellular ARPP 5'-monophosphate but no higher phosphate analogues | – | – | – | – | –
COc1ncnc2c(N[C@@H]3O[C@H](CO)[C@@H](O)[C@H]3O)ncnc12 [Compound 14, 4-Methoxy-8-(β-D-ribofuranosylamino)pyrimido[5,4-d]pyrimidine] | – | – | – | – | – | – | – | – | – | 62 | 0.42 | 1.35 | Direct inhibition | antiviral activity
